Laboratory results taken from patent publication US7049396B2, “Synthetic peptides that inhibit leukocyte superoxide anion production and/or attract leukocytes” (priority 1995, dated 2006).
Converted amounts (≈) assume the structure as drawn. Where a SMILES comes first, the peptide text is derived from it.

Columns and labels:
[1] = test system: 47 kDa neutrophil cytosol protein; assay: Ligand-blot binding assay with biotinylated PR-39, porcine cytosol; settings: biotinylated PR-39 probe
[2] = target: T1, interaction between GST-p47^phox and recombinant p22^phox (Homo sapiens, UniProt P14598); assay: Solution binding assay GST-p47phox-SH3 / recombinant p22phox; settings: concentrations close to IC50's of the cell-free oxidase assay
T1 construct: (GST)-p47^phox-SH3 (residues 151–284) fusion protein; made in house; host or cells: p22phox fragment: baculovirus-infected cells (used as lysate)
Description: Methods for production of the glutathione S-transferase (GST)-p47^phox-SH3 (residues 151–284) fusion protein have been previously described (Leto et al., 1994). For solution binding assays, lysates of recombinant p22^phox protein (residues 127–195) from baculovirus-infected cells (2.5×10^4 cell equivalents per assay) were mixed with peptides and incubated for 1 hr. at 20° C. with 100 μl of GST-p47^phox bound to glutathione-Sepharose beads (15% suspension). Bound proteins were washed three times in 15 volumes of ice-cold 100 mM KCl/3 mM NaCl/3.5 mM MgCl2/0.15 mM phenylmethanesulfonyl fluoride/10 mM Pipes (pH 7.5), eluted with 1% SDS, and analyzed by SDS-PAGE followed by immunoblotting with mouse anti-p22^phox antibody (mAb 449; A. Verhoeven, Central Laboratories of the Netherlands Red Cross). Controls included blotting of recombinant p22^phox lysate (5×10^3 cell equivalents) alone (p22) and bound complexes detected without competing PR peptides (−).

T1 sequence (P14598 151-284): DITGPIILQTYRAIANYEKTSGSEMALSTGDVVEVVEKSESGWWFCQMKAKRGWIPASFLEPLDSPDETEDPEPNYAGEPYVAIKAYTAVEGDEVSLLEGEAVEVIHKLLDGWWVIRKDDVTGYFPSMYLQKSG
Description for Escherichia coli, K88: Briefly, 50 μl of twofold serial dilutions (128 to 0.25 μM) of synthetic peptides were dispensed into wells of 96-well tissue culture plates. Bacteria (E. coli, ATCC 25922; E. coli, K88; S. typhimurium, fresh isolate from a dog; Salmonella choleraesuis ATCC 6962; Streptococcus suis, fresh isolate from porcine spleen; and Staphylococcus aureus) from sheep-blood or brain-heart-infusion agar plates were standardized to 0.5 McFarland in demineralized water using a radiometer/sensititre (Chelsea Instrument Ltd., England). The water/bacteria suspension (100 μl) was immediately transferred to 10 ml of cation-adjusted Muller-Hinton broth and 50 μl of the bacterial suspension then were added to each well of the microtiter plate. Plates were incubated for 20 hr. at 37° C. and MICs were determined. Ten microliters of bacterial suspensions in Muller-Hinton broth also were diluted to determine the actual bacterial concentration using standard colony forming unit (CFU) counting. After determination of the MICs, 10 μl of each bacteria-peptide suspension were plated on sheep-blood or brain-heart-infusion agar plates and incubated for 24 hr. at 37° C. to determine the MBCs. MBC was considered that peptide concentration that inhibited 99.9% of the original CFUs (NCCLS, 1990). • (iv) PAE.

CC[C@H](C)[C@H](NC(=O)[C@H](CCCNC(=N)N)NC(=O)[C@@H]1CCCN1C(=O)[C@@H]1CCCN1C(=O)[C@H](CC(C)C)NC(=O)[C@H](CCCNC(=N)N)NC(=O)[C@@H]1CCCN1C(=O)[C@@H]1CCCN1C(=O)[C@H](Cc1ccccc1)NC(=O)[C@H](Cc1ccccc1)NC(=O)[C@@H]1CCCN1C(=O)[C@@H]1CCCN1C(=O)[C@@H]1CCCN1C(=O)[C@H](CCCNC(=N)N)NC(=O)[C@@H]1CCCN1C(=O)[C@H](CCCNC(=N)N)NC(=O)[C@@H]1CCCN1C(=O)[C@H](CC(C)C)NC(=O)[C@H](Cc1ccc(O)cc1)NC(=O)[C@@H]1CCCN1C(=O)[C@@H]1CCCN1C(=O)[C@H](CCCNC(=N)N)NC(=O)[C@@H]1CCCN1C(=O)[C@H](CCCNC(=N)N)NC(=O)[C@H](CCCNC(=N)N)NC(=O)[C@@H](N)CCCNC(=N)N)C(=O)N1CCC[C@H]1C(=O)N1CCC[C@H]1C(=O)NCC(=O)N[C@@H](Cc1ccccc1)C(=O)N1CCC[C@H]1C(=O)N1CCC[C@H]1C(=O)N[C@@H](CCCNC(=N)N)C(=O)N[C@@H](Cc1ccccc1)C(=O)N1CCC[C@H]1C(=O)N1CCC[C@H]1C(=O)N[C@@H](CCCNC(=N)N)C(=O)N[C@@H](Cc1ccccc1)C(=O)N1CCC[C@H]1C(=O)O [PR-39] (H-RRRPRPPYLPRPRPPPFFPPRLPPRIPPGFPPRFPPRFP-OH; N-terminus and C-terminus assumed) was tested. Which “binding to 47 kDa cytosolic protein” value [1] did it give?
The value was “bound”.

And the “blocking of interaction between GST-p47phox and recombinant p22phox” value [2]?
Its value is “effectively blocked”.

And the MBC (Escherichia coli, K88)?
The MBC was 4 µM (≈ 18.9 µg/mL).

And the MIC (Escherichia coli, K88)?
The MIC was 2 µM (≈ 9.44 µg/mL).
